Reference: patent publication US12258308B2, “Benzene derivative” (ONO PHARMACEUTICAL CO., LTD., priority 2018, dated 2025)

Legend:
[1] = test system: streptozotocin-induced rat model; test: Test using streptozotocin-induced rat model (nociceptive threshold, von Frey); format: in vivo
Description: Biological Experiment Example 2: Test Using Streptozotocin-Induced Rat Model
In order to evaluate the therapeutic effect of each of the compounds of the present invention on diabetic peripheral neuropathy, an in vivo test using a streptozotocin model was carried out.
A model was produced by intravenously administering streptozotocin (abbreviated as “STZ”, hereinafter) one time at a dose amount of 55 mg/kg to a rat.
(2) Measurement of Nociceptive Threshold
The rat was placed in a clear acryl measurement cage once or more times for 10 minutes or longer until the administration of STZ started. In this manner, the rat was acclimated to the measurement environment. Eight von Frey filaments respectively having weights of 0.4, 0.6, 1, 2, 4, 6, 8 and 15 g were applied vertically to a hindpaw of the rat from under a metallic mesh floor. When a quick escape or flinching reaction was observed, it was determined that a positive reaction occurred (i.e., “response was observed”). Each of the compounds of the present invention was administered orally once per day in a period from day 14 to day 28 after the administration of STZ, wherein the dose amount of each of the compounds was 0.03, 0.3 or 3 mg/kg. A nociceptive threshold was measured 2 hours after the administration of each of the compounds of the present invention at the timings of before the administration of STZ, 14 days after the administration of STZ (i.e., the day of the start of the administration of each of the compounds of the present invention), 21 days after the administration of STZ (i.e., 7 days after the start of the administration of the compound), 28 days after the administration of STZ (i.e., 14 days after the start of the administration of the compound), and 35 days after the administration of STZ (i.e., 7 days after the withdrawal of the administration of the compound).
The nociceptive threshold was measured by the up-down method in accordance with the method of Chaplan et. al. (J Neurosci Methods. 1994; 53:55-63). The rate of improvement in the nociceptive threshold was calculated in accordance with the following formula. Nociceptive threshold improve rate (%)=(nociceptive threshold on each of the number of days elapsed after administration of STZ−B)/(A−B)×100 [Math 2] • A: Nociceptive threshold before administration of STZ • B: Nociceptive threshold on 14 days elapsed after administration of STZ (Results)
The results of the nociceptive thresholds and the nociceptive threshold improve rates obtained when each of the compounds of the present invention was administered at a dose amount of 0.3 mg/kg are shown in the FIGURE and Table 2, respectively. With respect to all of the compounds, a potent pain relief effect against peripheral neuropathy was observed. With respect to the compound of Example 11, for example, the improvement in the nociceptive threshold was observed from 7 days after the start of the administration of the compound, and this effect lasted even 7 days after the withdrawal of the administration.

rat Schwann cells = test: In vitro test using Schwann cells (Schwann cell differentiation promotion, MAG immunostaining); format: cell-based; settings: Rattus norvegicus, 72 h, 3 days, MAG-positive area/cell nuclei
Description: Biological Experiment Example 1: In Vitro Test Using Schwann Cells
• (1) Preparation of rat Schwann cells
A dorsal root ganglion (abbreviated as “DRG”, hereinafter) was excised from a newborn rat aged 0 to 2 days in a clean bench and was collected in DMEM. After the collection, the tube was centrifuged at 400 g, at room temperature for 3 minutes, then a supernatant was discarded, and a 0.25% collagenase solution was added. There resultant solution was incubated at 37° C. for 30 minutes to disperse and separate the excised DRG, and was then centrifuged at room temperature at 400 g for 3 minutes, then a supernatant was discarded, and then 0.25% Trypsin/EDTA and DNaseI were added. After the incubation at 37° C. for 30 minutes, trypsin was inactivated with DMEM supplemented with 10% FBS (10% FBS-DMEM), and centrifugation was carried out at room temperature at 400 g for 3 minutes. A supernatant was discarded, then 10% FBS-DMEM was added to the residue to prepare a cell suspension, and then the cell suspension was allowed to pass through a filter (diameter: 70 μm). The number of cells in the cell suspension which passed through the filter was counted to prepare a solution having a concentration of 2.0×10^5 cells/mL, and the suspension was seeded in a poly-D-lysine-coated 96-well black-clear plate in an amount of 100 μL/well and was then statically cultured in a CO2 incubator under the conditions including 5% of CO2, 95% of air and 37° C.
The culture medium in the cell culture plate was removed by suction using an aspirator, and then DMEM supplemented with 1% dialyzed FBS and 100 μmol/L dibutyryl cyclic AMP was added. Subsequently, a solution of a compound of the present invention dissolved in DMSO was added, and the resultant solution was statically cultured in a C02 incubator under the conditions including 5% of C02, 95% of air and a temperature of 37° C. The final concentration of the compound of the present invention in each well in the cell culture plate was adjusted to 0.1, 0.3, 1 or 3 μmol/L.
Three days after the treatment with the compound, formaldehyde was added to each well in the cell culture plate, and the cell culture plate was allowed to stand at room temperature for 30 minutes or longer. A supernatant was discarded, and then a 0.3% tritonX-100 solution was added to each well, and then the cell culture plate was allowed to stand at room temperature for 20 minutes or longer. A supernatant was discarded, then a 5-μg/mL anti-myeline-associated glycoprotein antibody (anti-MAG antibody) solution was added to each well, and then the cell culture plate was allowed to stand at room temperature for 60 minutes or longer or at 4° C. (acceptable range: 1 to 9° C.) overnight. Each well was washed with a 0.1% tritonX-100 solution three times, then a 10-μg/mL Alexa fluor 488 anti-mouse IgG solution was added to each well, and then the cell culture plate was allowed to stand at room temperature for 60 or longer or at 4° C. overnight. Each well was washed with a 0.1% tritonX-100 solution four times, and then a 1-μg/mL Hoechst33342 solution was added to each well to stain nuclei.
The Mag-positive area and the number of cell nuclei in a fluorescent image were calculated. With respect to each of the MAG-positive area and the number of cell nuclei, the sum total of values obtained in 5 viewing fields/well was determined. The values were employed as a value for the MAG-positive area and a value for the number of cell nuclei, respectively, in each well. Subsequently, a value determined by dividing the value for the MAG-positive area in each well by the value for the number of cell nuclei in the well (i.e., MAG/cell nuclei numerical value) was calculated. The Schwann cell differentiation promotion rate was determined for each of the vehicles in accordance with the following formula. […]

Compound: O=C(O)CCc1ccccc1OCCC/C=C/c1cccc(NS(=O)(=O)c2ccccc2)c1 [Example 84, 3-[2-[(E)-5-[3-(Benzenesulfonamido)phenyl]pent-4-enoxy]phenyl]propanoic acid]
- Nociceptive threshold improve rate (%) 7 days after withdrawal of administration ([1]; 0.3 mg/kg oral once per day day 14 to 28, 35 days after STZ): 58.8 ± 12.51%
- Nociceptive threshold improve rate (%) After initial single administration ([1]; 0.3 mg/kg oral once per day, 14 days after STZ, 2 hours after administration): 5.7 ± 2.48%
- Nociceptive threshold improve rate (%) 7 days after start of administration ([1]; 0.3 mg/kg oral once per day, 21 days after STZ): 35.0 ± 16.24%
- Nociceptive threshold improve rate (%) 14 days after start of administration ([1]; 0.3 mg/kg oral once per day, 28 days after STZ): 49.9 ± 11.50%
- activity at 0.3 µM (rat Schwann cells; compound 0.3 μmol/L, read-out: Schwann cell differentiation promotion rate (% of vehicle) 0.3 μmol/L): 162%
- activity at 3 µM (rat Schwann cells; compound 3 μmol/L, read-out: Schwann cell differentiation promotion rate (% of vehicle) 3 μmol/L): 445%
